# Measurements published in BindingDB's records for doi:10.1016/s0196-9781(98)00133-8 (Synaptic Pharmaceutical, 1998).
# pKi: −log10 of the molar value. Non-standard residues stand in square brackets, D forms with d. Residues, ends and D or L forms follow the SMILES beside them.
# Molecular target: T1, Galanin receptor type 3 (Homo sapiens, UniProt O60755)
# T1 sequence (O60755 whole entry): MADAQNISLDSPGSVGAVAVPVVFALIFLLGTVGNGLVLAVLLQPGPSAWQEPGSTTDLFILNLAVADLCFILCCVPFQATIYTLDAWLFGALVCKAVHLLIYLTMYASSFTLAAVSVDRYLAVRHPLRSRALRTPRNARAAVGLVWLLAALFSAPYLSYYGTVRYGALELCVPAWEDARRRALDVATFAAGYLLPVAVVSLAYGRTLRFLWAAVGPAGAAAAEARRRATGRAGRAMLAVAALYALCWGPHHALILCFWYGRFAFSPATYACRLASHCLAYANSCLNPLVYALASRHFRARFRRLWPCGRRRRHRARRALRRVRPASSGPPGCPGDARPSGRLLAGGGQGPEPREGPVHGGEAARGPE
row,pKi,Compound
1,7.22,CC[C@H](C)[C@H](NC(=O)[C@H](C)NC(=O)[C@H](Cc1c[nH]cn1)NC(=O)[C@@H]1CCCN1C(=O)CNC(=O)[C@H](CC(C)C)NC(=O)[C@H](CC(C)C)NC(=O)[C@H](Cc1ccc(O)cc1)NC(=O)CNC(=O)[C@H](C)NC(=O)[C@H](CO)NC(=O)[C@H](CC(N)=O)NC(=O)[C@H](CC(C)C)NC(=O)[C@@H](NC(=O)[C@@H](N)Cc1c[nH]c2ccccc12)[C@@H](C)O)C(=O)N[C@@H](CC(=O)O)C(=O)N[C@@H](CC(N)=O)C(=O)N[C@@H](Cc1c[nH]cn1)C(=O)N[C@@H](CCCNC(=N)N)C(=O)N[C@@H](CO)C(=O)N[C@@H](Cc1ccccc1)C(=O)N[C@@H](CO)C(=O)N[C@@H](CC(=O)O)C(=O)N[C@@H](CCCCN)C(=O)N[C@@H](Cc1c[nH]cn1)C(=O)NCC(=O)N[C@@H](CC(C)C)C(=O)N[C@H](C(N)=O)[C@@H](C)O [Galanin Porcine 2-29]

# Molecular target: T2, Galanin receptor type 2 (Homo sapiens, UniProt O43603)
# T2 sequence (O43603 whole entry): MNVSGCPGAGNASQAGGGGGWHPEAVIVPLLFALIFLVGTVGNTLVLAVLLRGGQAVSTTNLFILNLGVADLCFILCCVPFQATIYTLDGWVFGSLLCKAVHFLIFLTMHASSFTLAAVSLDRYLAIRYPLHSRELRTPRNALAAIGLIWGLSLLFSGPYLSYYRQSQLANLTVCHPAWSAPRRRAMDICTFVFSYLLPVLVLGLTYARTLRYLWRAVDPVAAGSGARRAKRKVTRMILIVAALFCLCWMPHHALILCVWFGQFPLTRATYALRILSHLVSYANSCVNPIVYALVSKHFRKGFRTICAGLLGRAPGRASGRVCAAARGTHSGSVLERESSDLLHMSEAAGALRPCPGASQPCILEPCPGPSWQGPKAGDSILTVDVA
row,pKi,Compound
1,8.71,CC(C)C[C@H](NC(=O)[C@H](CC(C)C)NC(=O)[C@H](Cc1ccc(O)cc1)NC(=O)CNC(=O)[C@H](C)NC(=O)[C@H](CO)NC(=O)[C@H](CC(N)=O)NC(=O)[C@H](CC(C)C)NC(=O)[C@@H](NC(=O)[C@H](Cc1c[nH]c2ccccc12)NC(=O)CN)[C@@H](C)O)C(=O)NCC(=O)N1CCC[C@H]1C(=O)N1CCC[C@H]1C(=O)N1CCC[C@H]1C(=O)NCC(=O)N[C@@H](Cc1ccccc1)C(=O)N[C@@H](CO)C(=O)N1CCC[C@H]1C(=O)N[C@@H](Cc1ccccc1)C(=O)N[C@@H](CCCN=C(N)N)C(N)=O
2,8.97,COc1ccccc1N(CCOc1ccc(C)cc1)C(=O)CN1CCCCC1 [CAS_3043476]
3,9.20,CC(C)C[C@H](NC(=O)[C@H](CC(C)C)NC(=O)[C@@H](Cc1c[nH]c2ccccc12)NC(=O)[C@H](Cc1ccccc1)NC(=O)[C@@H](Cc1c[nH]c2ccccc12)NC(=O)[C@H](CCC(N)=O)NC(=O)[C@H](CCC(N)=O)NC(=O)[C@@H]1CCCN1C(=O)[C@H](CCCCN)NC(=O)[C@@H]1CCCN1C(=O)[C@@H](CCCN=C(N)N)NC(=O)[C@@H]1CCCN1C(=O)CNC(=O)[C@H](CC(C)C)NC(=O)[C@H](CC(C)C)NC(=O)[C@H](Cc1ccc(O)cc1)NC(=O)CNC(=O)[C@H](C)NC(=O)[C@H](CO)NC(=O)[C@H](CC(N)=O)NC(=O)[C@H](CC(C)C)NC(=O)[C@@H](NC(=O)[C@H](Cc1c[nH]c2ccccc12)NC(=O)CN)[C@@H](C)O)C(N)=O [Gal(1-13)-Std I] (H-GWTLNSAGYLLGP[dR]PKPQQ[dW]F[dW]LL-NH2)
4,6.00,"CC[C@H](C)[C@H](NC(=O)[C@H](C)NC(=O)[C@H](Cc1c[nH]cn1)NC(=O)[C@@H]1CCCN1C(=O)CNC(=O)[C@H](CC(C)C)NC(=O)[C@H](CC(C)C)NC(=O)[C@H](Cc1ccc(O)cc1)NC(=O)CNC(=O)[C@H](C)NC(=O)[C@H](CO)NC(=O)[C@H](CC(N)=O)NC(=O)[C@H](CC(C)C)NC(=O)[C@@H](N)[C@@H](C)O)C(=O)N[C@@H](CC(=O)O)C(=O)N[C@@H](CC(N)=O)C(=O)N[C@@H](Cc1c[nH]cn1)C(=O)N[C@@H](CCCNC(=N)N)C(=O)N[C@@H](CO)C(=O)N[C@@H](Cc1ccccc1)C(=O)N[C@@H](Cc1c[nH]cn1)C(=O)N[C@@H](CC(=O)O)C(=O)N[C@@H](CCCCN)C(=O)N[C@@H](Cc1ccc(O)cc1)C(=O)NCC(=O)N[C@@H](CC(C)C)C(=O)N[C@@H](C)C(N)=O [Galanin (3-29), porcine]"
5,8.54,CC[C@H](C)[C@H](NC(=O)[C@H](C)NC(=O)[C@H](Cc1c[nH]cn1)NC(=O)[C@@H]1CCCN1C(=O)CNC(=O)[C@H](CC(C)C)NC(=O)[C@H](CC(C)C)NC(=O)[C@H](Cc1ccc(O)cc1)NC(=O)CNC(=O)[C@H](C)NC(=O)[C@H](CO)NC(=O)[C@H](CC(N)=O)NC(=O)[C@H](CC(C)C)NC(=O)[C@@H](NC(=O)[C@@H](N)Cc1c[nH]c2ccccc12)[C@@H](C)O)C(=O)N[C@@H](CC(=O)O)C(=O)N[C@@H](CC(N)=O)C(=O)N[C@@H](Cc1c[nH]cn1)C(=O)N[C@@H](CCCNC(=N)N)C(=O)N[C@@H](CO)C(=O)N[C@@H](Cc1ccccc1)C(=O)N[C@@H](CO)C(=O)N[C@@H](CC(=O)O)C(=O)N[C@@H](CCCCN)C(=O)N[C@@H](Cc1c[nH]cn1)C(=O)NCC(=O)N[C@@H](CC(C)C)C(=O)N[C@H](C(N)=O)[C@@H](C)O [Galanin Porcine 2-29]
6,8.79,CC[C@H](C)[C@H](NC(=O)[C@H](C)NC(=O)[C@H](Cc1cnc[nH]1)NC(=O)[C@@H]1CCCN1C(=O)CNC(=O)[C@H](CC(C)C)NC(=O)[C@H](CC(C)C)NC(=O)[C@H](Cc1ccc(O)cc1)NC(=O)CNC(=O)[C@H](C)NC(=O)[C@H](CO)NC(=O)[C@H](CC(N)=O)NC(=O)[C@H](CC(C)C)NC(=O)[C@@H](NC(=O)[C@H](Cc1c[nH]c2ccccc12)NC(=O)CN)[C@@H](C)O)C(=O)N[C@@H](CC(=O)O)C(=O)N[C@@H](CC(N)=O)C(=O)N[C@@H](Cc1cnc[nH]1)C(N)=O [Galanin rat]
7,8.39,H-GWTLNSAGYLLGPPPALALA-NH2 [M40]
